This note sets out measurements from patent publication US12274740B2, “Microbiome protection from oral antibiotics” (Theriva Biologics, Inc., priority 2016, dated 2025).

One data set is described as follows: in vivo. Conditions: Yorkshire, pig.
A short description of data set [1]: Piglet study of modified nested SYN-004 formulation with oral amoxicillin. It is filed as in vivo, Yorkshire piglets. The conditions noted are these: pig serum three hours after oral amoxicillin 40 mg/kg. The method, then:
Formulation 2 (TABLE 17) capsules consisting of FS 30 D-coated SYN-004 pellets within FS 30 D-coated capsules were prepared for testing in normal piglets. For this formulation, size 9H gelatin capsules (small capsules, 2.7 mm diameter, 5 mm length) were filled with 3 pellets of FS 30 D-coated SYN-004 sucrose cores, then coated with FS 30 D. The coated 9H capsule containing the SYN-004 pellets was then inserted into a size 5 gelatin capsule for ease of delivery to the pigs (FIG. 26). Each FS 30 D-coated pellet of SYN-004 contained […] of SYN-004. Therefore, the total SYN-004 dose was 0.5 mg/size 5 gelatin capsule. The anticipated advantage of this nested strategy using the small 9H capsules is that the gelatin capsule will dissolve in the stomach, releasing the small FS 30 D-coated 9H capsule that is protected from stomach acid and is small enough to pass through the gastric pylorus without the need for stomach emptying. […] Amoxicillin levels were similar in animals treated with amoxicillin alone and with amoxicillin plus the SYN-004 (FIG. 27; TABLE 20).

The nature of data set [2]: Two arm PK study in dogs: amoxicillin levels in dog serum with or without Formulation 2 (TABLE 17). Conditions: for Amoxicillin levels in dog serum, 0.00 hr: pre-dose. It is filed as in vivo, beagle dogs. As to the method: Formulation 2 (TABLE 17) was chosen for evaluation in dogs. A two arm pharmacokinetics (PK) study was performed in three non-naïve male beagle dogs (age 2 years, approximately 12 kg). Animals were fasted overnight prior to the day of dosing in each arm. In Arm 1, the dogs were administered one dose of an amoxicillin suspension (amoxicillin powder, Sandoz, Lot FW1707, reconstituted in apple juice to 400 mg/5 ml) via oral gavage at 80 mg/kg. Animals were returned to their cages post-dose and fed 1.5 hrs after amoxicillin dosing. In Arm 2, dogs were administered an amoxicillin suspension (80 mg/kg, prepared as in Arm 1) via oral gavage. Immediately after the oral amoxicillin was dosed, the animals received one size 4 capsule of Formulation 2 (TABLE 17) containing 10 mg of SYN-004. The capsules were not chewed and were swallowed whole. Capsules were dosed by hand by placing the capsule in the back of the dog's mouth and followed by 6 mL of Mott's 100% apple juice in a syringe. Animals were returned to their cages post-dose and fed 1.5 hrs after amoxicillin dosing. There was a seven day washout period between the two arms. In both arms of the study, blood (approximately 2 mL) was collected for serum PK analysis at pre-dose, and 30 minutes, 1, 2, 3, 4, 6, 8, and 10 hrs post-dose. Serum was collected and immediately frozen at −80° C. Feed was ad-libitum throughout both arms, except during dosing, which was done fasted as described. […] Animals were returned to the colony following the last blood collection.
Serum was analyzed for amoxicillin levels using a validated liquid chromatography (LC) method with tandem mass spectrometry detection (LC/MS/MS). Briefly, the serum samples were extracted using the protein precipitation extraction method and analyzed using reverse phase LC. Amoxicillin and amoxicillin-d4 (internal standard) were detected using tandem MS. The study was performed using Applied Biosystems Triple Quad API 500 LC/MS/MS system with Turbo ion spray interfaces. The data were acquired and analyzed by Applied Biosystems “Analyst” software, version 1.5. The lower limit of quantitation (LLOQ) for amoxicillin was 101.723 ng/ml. The upper limit of quantitation (ULOQ) for amoxicillin was 20344.678 ng/ml. A calibration curve consisting of two control blanks, two zero standards and ten non-zero standards, prepared in naïve dog serum, covering a range of 101.723 to 20344.678 ng/ml, were run with each sample batch. Amoxicillin levels were similar for each animal in Arm 1 and Arm 2 of the study (TABLE 19). The amoxicillin serum levels in Arm 1 and Arm 2 for each dog were plotted separately and the area under the curves was calculated (FIG. 25). The area under the curve for each animal was similar in Arm 1 and Arm 2 of the study. […] Therefore, the strategy to reduce the potential for premature release, release in the small intestine prior to absorption of orally-delivered amoxicillin, by using FS 30 D-coated SYN-004 layered sucrose pellets incorporated inside FS 30 D-coated capsule, or the “nested” strategy, was successful as indicated by the similar amoxicillin blood levels in each dog with and without SYN-004.

Setting [3] is: Arm 1: amoxicillin 80 mg/kg oral gavage alone.
The mark [4] stands for this setting: Arm 2: amoxicillin 80 mg/kg + one capsule Formulation 2 (TABLE 17), 10 mg SYN-004.

Several values for one entry are separate records, joined by “and”; a condition that tells them apart may be missing. Identical values can stand only once.

Experimental for in vivo: A study was performed using normal piglets to compare the three, modified-release formulations of SYN-004 as described in Example 2, and the original SYN-004 formulation (Enteric pH 5.5) as described in Example 1, delivered orally with oral amoxicillin, to evaluate the effect on amoxicillin serum levels and protection of the microbiome from amoxicillin-induced dysbiosis (FIG. 20).
A total of 25, two month old Yorkshire piglets, approximately 20 kg each, were used for this study. All 25 animals were treated with oral amoxicillin twice a day for a total of 7 days, in addition, Groups 2-5 received SYN-004 four times a data starting the day before amoxicillin treatment for a total of 9 days (TABLE 7).
On Study Day 0, Groups 2-5 (Pigs 6-25) received one size 0 capsule of one of each of the four SYN-004 formulations, containing 50 mg of SYN-004, orally, four times a day at 7 am, 12 pm, 5 pm, and 10 pm for a total of 9 days. Pigs were fed 3 times a day, after SYN-004 dosing at 7 am, after SYN-004 dosing at 12 pm, and after SYN-004 dosing at 5 pm. Beginning on Study Day 1, all groups, 1-5 (Pigs 1-25), received oral amoxicillin (fruit flavored oral suspension, Sandoz, NDC: 0781-6157-46, Lot #FB0703; 20 mg/kg) twice a day at 7 am and at 5 pm, for a total of 7 days. […]
Amoxicillin levels in the pig serum were quantified using a validated liquid chromatography method with MS/MS detection.

Compound `CC1(C)S[C@@H]2[C@H](NC(=O)[C@H](N)c3ccc(O)cc3)C(=O)N2[C@H]1C(=O)O` [Amoxicillin] came in with a concentration at 3 h in the data set “in vivo” (Amoxicillin (ng/ml) 3 hours) of 1160 to 2320 ng/mL. Moreover, the concentration at 6 h in “in vivo” (Amoxicillin (ng/ml) 6 hours) was 667 to 1160 ng/mL. The same compound returned a concentration at 3 h in data set [1] (Yorkshire, pig, serum, oral, 40 mg/kg, Amoxicillin Serum Levels (ng/ml) Mean, alone or with SYN-004 0.5 mg, 5 pigs, heading: Amoxicillin Serum Levels Mean) of 182 ng/mL. Also, the “Amoxicillin Serum Levels (ng/ml), individual animal” value in data set [1] (alone or with one capsule SYN-004 modified nested formulation (0.5 mg)) was 29647 ng/mL and 6498 ng/mL and 25130 ng/mL and 14936 ng/mL and 14757 ng/mL. In data set [2] (setting [3]), the “Amoxicillin levels in dog serum, 0.50 hr” value was 17908.396 ng/mL and 16720.439 ng/mL; the “Amoxicillin levels in dog serum, 0.00 hr” value is given as “BLQ (BLQ: Below lower limit of quantitation)”. Besides, in data set [2] (setting [4]), the “Amoxicillin levels in dog serum, 2.00 hr” value is 30317.167 ng/mL and 35935.251 ng/mL; the “Amoxicillin levels in dog serum, 0.00 hr” value is “BLQ (BLQ: Below lower limit of quantitation)”. In addition, the concentration at 10 h in data set [2] (male, beagle, dog, serum, oral, 80 mg/kg, Arm 1: amoxicillin 80 mg/kg oral gavage alone) turned out to be 183 ng/mL. The concentration at 0.5 h in data set [2] (male, beagle, dog, serum, oral, 80 mg/kg, Arm 1: amoxicillin 80 mg/kg oral gavage alone, read-out: Amoxicillin levels in dog serum, 0.50 hr) was 12600 ng/mL. In addition, the concentration at 2 h in data set [2] (male, beagle, dog, serum, oral, Arm 2: amoxicillin 80 mg/kg + one capsule Formulation 2 (TABLE 17), 10 mg SYN-004) came to 18700 ng/mL. Also, the “area under the curve, Arm 1 versus Arm 2” value in data set [2] (serum amoxicillin, each animal) was “similar”.
